Assay results as given in patent US20230321083A1, “Inhibitors of GPR174 and Uses Thereof” (Omeros Corporation, priority 2016, published 2023).

Legend:
Type in all cases: cell-based
[1] = tested on: CHRM1; experiment: Cellular Redistribution Assay (CRA) against CHRM1; settings: FIG. 5B
Excerpt: (§1) The inventors used a CRA similar to that described in U.S. Pat. No. 7,309,576 and O'Dowd et al., J. Biomol. Screen. 12:175-85, 2007 to identify compounds that are capable of interacting with GPR174 using a library of approximately 370,000 chemical entities. Briefly described, the CRA assay described in U.S. Pat. No. 7,309,576 involves artificially inserting a NLS into the dopamine D1 receptor (DRD1), which allows the receptor to traffic from the cell membrane to the cell interior, and that the binding of antagonists to the receptor retained the receptor at the cell surface, while removal of the ligand allowed the receptor to continue to internalize from the cell surface. Both antagonists and agonists that selectively bound the receptor retained the receptor on the plasma membrane. GPR174 constructs were generated for use in a CRA-based compound screening assay. From this screen, the inventors initially identified compounds of formula I-VI, as described herein and included in TABLE 1.
The inventors also sought to validate that the compounds identified using the CRA are modulatory compounds. To this end, the above-described CRA was used to screen a library for compounds that interact with three control non-orphan receptors, and the results of this screen were compared to the results of screening the same library for compound that were identified using a Fluorometric Imaging Plate Reader (FLIPR) assay, a conventional technique commonly used to identify compounds interacting with non-orphan GPCRs signaling through Ca+. Three non-orphan GPCRs—Muscarinic acetylcholine receptor M1 (CHRM1), Adrenergic receptor alpha 1a (ADRA1a), and Neuropeptide S receptor (NPSR)—were screened against a 10,000-compound GPCR-focused library. Thirty interacting compound “hits” were identified using the CRA, and eighty-one hits were identified using the FLIPR for the CHRM1 receptor; 9 CRA hits and 29 FLIPR hits for the NPS receptor were identified; and 110 CRA hits and 110 FLIPR hits for ADRA1a.
In addition, the CRA can also provide the relative potencies of compounds against the target receptor.

[2] = target: T1, ADBR2 (Homo sapiens, UniProt P07550); experiment: CRE-Luc reporter Gs signaling assay, control receptor ADBR2
T1 construct: host or cells: HEK293 or CHO cell lines (ATCC)
Protocol: (§2) Compounds were tested in the reporter system with increasing concentrations of GPR174-interacting compounds. GPR174 construct pCMV6-XL4-GPR174 or ADBR2, reporter of interest, pCRE-Luc or GL4.29 (3000 ng), and TK-renilla as an internal control (10 ng) with lipofectamine 2000 (60 ug) (Invitrogen, CA) according to the manufacturer's directions.
(§3) The DNA/lipofectamine 2000 mix (3000 μL) was incubated at room temperature for 30 minutes and then added into a 10 cm culture dish (Corning, NY) containing 70-90% confluent cultured cells, typically HEK293 or CHO cell lines (ATCC, VA), in 15 mL of media. The cells were further incubated for 4-6 hours at 37° C. and then media were removed and cells were detached with 2 mL trypsin (Life Technologies, CA). Media (26 mL) were added to the detached cells and 120 μL of transfected cells were transferred to each well on a 96-well plate. Increasing concentration of each compound in DMSO (1.2 μl) was added to the cells after plating into the 96-well plate. The cells were further incubated at 37° C. for various times. The media were removed and the cells lysed. Luciferase and renilla activities were measured with the Dual-luciferase assay system (Promega, WI) according to the manufacturer's directions. Typically, lysis buffer (25 μL) was added to the cells and incubated at room temperature for 20-30 minutes to allow for the cells to lyse. The lysate (10 μL) was measured for luciferase and renilla activity with LARII and Stop&Glo reagent (50 μL each) with a SpectraMax L (Molecular Devices, CA). Data were analyzed with either Excel (Microsoft, WA) or Prism 4.03 (GraphPad, CA).
(§4) ADBR2 is a GPCR, like GPR174, that activates the Gs signaling pathway.

[3] = target: T2, GPR174 (Homo sapiens, UniProt Q9BXC1); experiment: Cellular Redistribution Assay (CRA) against GPR174; set-up: fused on or other part: No tag or reporter is given; settings: FIG. 5A
Excerpt: One method for identifying compounds capable of modulating a receptor is using a cellular redistribution assay (“CRA”). Exemplary CRA methods are found in U.S. Pat. No. 7,309,576 issued to O'Dowd et al. and in O'Dowd et al., J. Biomol. Screen. 12:175-85, 2007. […] Incorporation of the NLS alters the cellular localization of the GPCR, such that the majority of the NLS-modified receptor is present in the cell interior. An NLS-modified GPCR, when interacting with a functionally active compound, is mostly localized on the cell surface. Thus, it becomes possible to identify receptor modulators without knowledge of the endogenous ligand or a surrogate ligand.
The inventors have identified a number of compounds that inhibit GPR174 using a CRA assay similar to that described in U.S. Pat. No. 7,309,576 and in O'Dowd et al., J. Biomol. Screen. 12:175-85, 2007. These compounds are described in detail below.
as §1
Target sequence in this assay (Q9BXC1 1-290 limits assumed): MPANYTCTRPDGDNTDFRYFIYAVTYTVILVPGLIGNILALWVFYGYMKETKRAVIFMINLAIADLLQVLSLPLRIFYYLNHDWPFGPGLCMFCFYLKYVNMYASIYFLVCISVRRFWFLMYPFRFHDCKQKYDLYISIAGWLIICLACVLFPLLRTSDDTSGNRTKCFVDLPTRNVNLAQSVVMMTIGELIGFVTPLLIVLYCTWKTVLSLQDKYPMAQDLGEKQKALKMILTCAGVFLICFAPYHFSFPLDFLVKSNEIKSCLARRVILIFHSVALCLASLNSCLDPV

[4] = target: T2, GPR174; experiment: CRE-Luc reporter Gs signaling assay, cells transfected with GPR174; set-up: host or cells: HEK293 or CHO cell lines (ATCC); settings: for effect on Gs pathway in the presence of GPR174: CRE-Luc reporter
Protocol: as §2, §3, §4
Target sequence in this assay (Q9BXC1 whole entry, the tested form may be a part): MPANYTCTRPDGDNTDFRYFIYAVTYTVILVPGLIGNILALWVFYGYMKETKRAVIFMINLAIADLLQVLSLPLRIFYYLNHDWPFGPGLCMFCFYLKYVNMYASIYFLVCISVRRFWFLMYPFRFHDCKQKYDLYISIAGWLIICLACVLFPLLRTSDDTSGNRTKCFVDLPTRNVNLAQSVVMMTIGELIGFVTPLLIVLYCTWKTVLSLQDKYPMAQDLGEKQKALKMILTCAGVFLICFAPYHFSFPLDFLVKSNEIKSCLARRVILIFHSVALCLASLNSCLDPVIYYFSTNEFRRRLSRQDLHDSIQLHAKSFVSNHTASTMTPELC

[5] = target: T2, GPR174; experiment: GloSensor assay, GPR174, with or without LysoPS; set-up: host or cells: HEK293 or CHO cell lines (ATCC)
Protocol: (§5) In order to confirm that GPR174 interacting compound #4 is an antagonist of GPR174-mediated Gs signaling, a GloSensor assay was carried out with increasing concentrations of compound #4 in the presence or absence of a fixed concentration (1 μM) of the GPR174 agonist LysoPS as follows.
(§6) The GloSensor Assay was performed by transiently transfecting the GPR174 construct, pCMV6-XL4-GPR174 or ADBR2, pGlo22 (300 ng) (Promega) with lipofectamine 2000 (60 μg) (Invitrogen, CA) according to the manufacturer's directions. The DNA/lipofectamine 2000 mix (3000 μL) was incubated at room temperature for 30 minutes and then added into a 10 cm culture dish (Corning, NY) containing 70-90% confluent cultured cells, typically HEK293 or CHO cell lines (ATCC, VA), in 15 mL of media. […] The cells were then incubated at room temperature for 2 hours and the cell plates were pre-read with a SpectraMax L (Molecular Devices, CA). After the pre-read, increasing concentrations of each compound in DMSO (1.0 μl) was added to the cells. The cell plates containing the compound were read immediately after the compound was added and at various times up to 30 minutes after the addition of the compound with a SpectraMax L (Molecular Devices, CA). Data were analyzed with either Excel (Microsoft, WA) or Prism 4.03 (GraphPad, CA).
Target sequence in this assay (Q9BXC1 whole entry, species assumed, the tested form may be a part): as the sequence (Q9BXC1 whole entry, the tested form may be a part) above

[6] = target: T1, ADBR2; experiment: GloSensor assay, ADBR2 control
Protocol: as §5, §6

effect on Gs pathway in the presence of ADBR2 [2] | effect on Gs pathway in the presence of GPR174 [4] | modulation of Gs pathway in the presence of GPR174 (GloSensor) ([5]; compound alone) | Human GPR174 CRE Activity: nature of compound [4] | nature of compound in GPR174 signaling assay ([4]; human GPR174 with pCRE-Luc) | Compound | activity in CRA against CHRM1 [1] | dose-response in CRA against GPR174 [3] | competition with GPR174 agonist LysoPS (GloSensor) ([5]; fixed 1 μM LysoPS) | modulation of Gs signaling in the presence of ADBR (GloSensor) [6]
did not inhibit the Gs pathway | inhibited the Gs pathway | – | – | – | CC(=O)N1CCN(c2cc(N3CCCCC3)c(F)cc2[N+](=O)[O-])CC1 [Compound 2] | do not show any activity against CHRM1 | show a dose-response curve against GPR174 | – | –
did not modulate the Gs pathway | did not modulate the Gs pathway | does not modulate the Gs pathway | Antagonist | GPR174 antagonist | CCCC(=O)c1ccc(N2CCN(S(=O)(=O)c3ccc(C)cc3)CC2)c(F)c1 [Compound 4] | do not show any activity against CHRM1 | show a dose-response curve against GPR174 | does compete with the GPR174 agonist LysoPS | neither compound #4 nor LysoPS modulate Gs signaling
– | – | – | – | – | lysophosphatidylserine [LysoPS, reference compound] | – | – | – | neither compound #4 nor LysoPS modulate Gs signaling
